Assay results published in US20260022116A1, “IMIDAZOPYRIDINE COMPOUNDS, PREPARATION THEREOF AND THERAPEUTIC USES THEREOF” (SANOFI, priority 2022, published 2026).
Where two headings read alike, the source gives them in different places.

Legend:
ERK5 [1] = target: T1, ERK5 (Homo sapiens, UniProt Q13164)
Target sequence in this assay (Q13164 55-347 limits assumed): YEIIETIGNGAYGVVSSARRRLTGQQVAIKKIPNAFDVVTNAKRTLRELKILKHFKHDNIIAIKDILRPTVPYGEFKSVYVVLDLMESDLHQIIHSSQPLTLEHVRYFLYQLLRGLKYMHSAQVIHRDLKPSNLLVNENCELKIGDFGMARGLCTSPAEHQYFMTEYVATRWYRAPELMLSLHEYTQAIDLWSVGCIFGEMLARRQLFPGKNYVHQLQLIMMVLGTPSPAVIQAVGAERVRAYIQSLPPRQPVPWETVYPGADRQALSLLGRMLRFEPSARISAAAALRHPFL
Procedure: (§1) Two assays were performed to assess the ERK5 inhibitory activity of compounds of the Examples, a cell-based assay and a cell-free biochemical assay.
(§2) An assay was performed to measure the capacity of each compound to inhibit ERK5 enzymatic activity. Compound potency was evaluated by Time-Resolved Forster Resonance Energy Transfer (FRET system). […] A mixture of 1 mM ATP and 1 μM biotinylated synthetic peptide was added (Biosyntan GmbH). This synthetic peptide represents amino acids 30-52 of Eukaryotic translation initiation factor 4E-binding protein 1 (see, e.g., the sequence under accession No. NP_004086.1) biotinylated at the N-terminus.

ERK5 [2] = target: T1, ERK5; test: cell-based
Target sequence in this assay (Q13164 whole entry): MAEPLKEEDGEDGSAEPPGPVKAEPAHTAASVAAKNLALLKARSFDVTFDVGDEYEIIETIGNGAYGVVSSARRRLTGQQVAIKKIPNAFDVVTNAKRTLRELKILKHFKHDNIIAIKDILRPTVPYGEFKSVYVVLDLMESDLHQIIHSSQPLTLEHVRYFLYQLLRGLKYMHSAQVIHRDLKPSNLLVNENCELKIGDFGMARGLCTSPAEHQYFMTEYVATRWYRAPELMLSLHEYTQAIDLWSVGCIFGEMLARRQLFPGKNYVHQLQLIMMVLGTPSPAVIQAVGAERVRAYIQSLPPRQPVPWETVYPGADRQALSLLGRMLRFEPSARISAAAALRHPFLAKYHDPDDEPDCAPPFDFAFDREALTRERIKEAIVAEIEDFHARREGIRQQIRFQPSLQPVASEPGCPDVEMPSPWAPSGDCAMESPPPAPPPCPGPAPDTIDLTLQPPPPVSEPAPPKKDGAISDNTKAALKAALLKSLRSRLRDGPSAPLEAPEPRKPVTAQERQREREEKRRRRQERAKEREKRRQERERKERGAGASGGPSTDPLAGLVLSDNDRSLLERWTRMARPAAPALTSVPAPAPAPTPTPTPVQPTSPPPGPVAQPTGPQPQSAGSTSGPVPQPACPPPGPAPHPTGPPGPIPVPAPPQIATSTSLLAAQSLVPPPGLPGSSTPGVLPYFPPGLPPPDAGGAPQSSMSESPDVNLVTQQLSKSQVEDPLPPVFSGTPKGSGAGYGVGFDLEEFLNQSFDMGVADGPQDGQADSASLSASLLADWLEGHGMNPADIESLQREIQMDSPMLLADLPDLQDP
Procedure: as §1
(§3) The renal cancer cell line SN12C was transduced by a lentivirus pGreenFire1 MEF2 EF1 Neo (ref TR030VA-N) from SBI using standard infection protocol. pGreenFire1 MEF2 EF1 Neo allows the expression of luciferase gene under the control of minimal promoter with MEF2 transcriptional response elements. Cells harboring the reporter construct were selected by geneticin treatment. The selected cells were then transposed by a piggyback based plasmid pCM4007 allowing the expression of constitutively activated MEK5DD under control of TREG3 promoter, a doxycycline regulated promoter. Transposed cells were selected by puromycin treatment. Upon doxycycline treatment (1 μg/ml) MEK5DD was expressed. MEK5DD activates ERK5 that phosphorylates MEF2C protein. Activated MEF2C protein can bind to its transcriptional response elements. Then the luciferase is expressed. In a 96-well plate (96F nuncleon ref137101 thermofisher), 50,000 cells were inoculated in 142.5 μl of RPMI medium containing 10% fetal calf serum, 1% glutamine, and 1 μg/ml doxycycline. […] The luciferase activity was measured using the Kit Bright Glo Luminescent Cell Assay Cat E2610 (Promega) according to the manufacturer's protocol. Luminescence was determined using 0.2 second reading/well using a Tecan SPARK. IC50 values were calculated using XLFIT5 for Microsoft Excel using method 205.

ERK5 [3] = target: T1, ERK5; remark: listed apart in the source
Target sequence in this assay (Q13164 whole entry): as above
Procedure: as §1, §3

ERK5 [4] = target: T1, ERK5; test: biochemical
Target sequence in this assay (Q13164 55-347 limits assumed): as the sequence (Q13164 55-347 limits assumed) above
Procedure: as §1, §2

IC50 (ERK5 [1]) [nM]	IC50 (ERK5 [2]) [nM]	IC50 (ERK5 [4]) [nM]	SMILES	IC50 (ERK5 [3]) [nM]
148	179		CN1CCC(c2nc3c(C4CCN(C(=O)c5ccc(OC(F)(F)F)cc5)CC4)ccnc3[nH]2)C1 (single isomer, unassigned) [Example 25, [4-[2-(1-Methylpyrrolidin-3-yl)-3H-imidazo[4,5-b]pyridin-7-yl]-1-piperidyl]-[4-(trifluoromethoxy)phenyl]methanone]	
	16 to 43	3870	Nc1cc(OC(F)(F)F)ccc1C(=O)N1CCC(c2c(F)cnc3[nH]c(C45CC(C(F)(F)F)(C4)C5)nc23)CC1 [Example 432, [2-amino-4-(trifluoromethoxy)phenyl]-[4-[6-fluoro-2-[3-(trifluoromethyl)-1-bicyclo[1.1.1]pentanyl]-3H-imidazo[4,5-b]pyridin-7-yl]-1-piperidyl]methanone]	
	150	148	CN1CCC(c2nc3c(C4CCN(C(=O)c5ccc(OC(F)(F)F)cc5)CC4)ccnc3[nH]2)C1 (single isomer, unassigned) [Example 24, [4-[2-(1-Methylpyrrolidin-3-yl)-3H-imidazo[4,5-b]pyridin-7-yl]-1-piperidyl]-[4-(trifluoromethoxy)phenyl]methanone]	
	38 to 88	4500	O=C(c1ccc(OC(F)(F)F)cc1)N1CCC(c2c(F)cnc3[nH]c(C45CC(C(F)(F)F)(C4)C5)nc23)CC1 [Example 436, [4-[6-fluoro-2-[3-(trifluoromethyl)-1-bicyclo[1.1.1]pentanyl]-3H-imidazo[4,5-b]pyridin-7-yl]-1-piperidyl]-[4-(trifluoromethoxy)phenyl]methanone]	

Continued, molecule first:

SMILES	IC50 (ERK5 [1]) [nM]	IC50 (ERK5 [2]) [nM]	IC50 (ERK5 [4]) [nM]	IC50 (ERK5 [3]) [nM]
COC12CC(c3nc4c(C5CCN(C(=O)c6ccc(OC(F)(F)F)cc6N)CC5)c(F)cnc4[nH]3)(C1)C2 [Example 428, [2-amino-4-(trifluoromethoxy)phenyl]-[4-[6-fluoro-2-(3-methoxy-1-bicyclo[1.1.1]pentanyl)-3H-imidazo[4,5-b]pyridin-7-yl]-1-piperidyl]methanone]			28	5
COC12CC(c3nc4c(C5CCN(C(=O)c6ccc(OC(F)(F)F)cc6)CC5)c(F)cnc4[nH]3)(C1)C2 [Example 426, [4-[6-fluoro-2-(3-methoxy-1-bicyclo[1.1.1]pentanyl)-3H-imidazo[4,5-b]pyridin-7-yl]-1-piperidyl]-[4-(trifluoromethoxy)phenyl]methanone]			69	10
Nc1cc(OC(F)(F)F)ccc1C(=O)N1CCC(c2ccnc3[nH]c(CC4CCOC4)nc23)CC1 (single isomer, unassigned) [Example 2, [2-Amino-4-(trifluoromethoxy)phenyl]-[4-[2-(tetrahydrofuran-3-ylmethyl)-3H-imidazo[4,5-b]pyridin-7-yl]-1-piperidyl]methanone]		134	140	
Nc1cc(S(F)(F)(F)(F)F)ccc1C(=O)N1CCC(c2ccnc3[nH]c(C4CCOC4)nc23)CC1 (single isomer, unassigned) [Example 308, [2-amino-4-(pentafluoro-λ^6-sulfanyl)phenyl]-[4-[2-[tetrahydrofuran-3-yl]-3H-imidazo[4,5-b]pyridin-7-yl]-1-piperidyl]methanone]		99	97	
